According to PubChem BioAssay (NCI):
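Following 48 hours of exposure in 96-well plates, responses at five concentrations were used to interpolate endpoints linearly. GI50: concentration for 50% inhibition of growth. The concentration for full growth arrest is given as TGI.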

Legend:
Experiment in all cases: NCI tumour cell line growth inhibition, 48 h
[1] = test system: OVCAR-4 ovarian
[2] = test system: SK-MEL-28 melanoma
[3] = test system: CCRF-CEM leukemia
[4] = test system: ACHN renal
[5] = test system: SN12C renal
[6] = test system: OVCAR-8 ovarian
[7] = test system: SNB-19 CNS
[8] = test system: U251 CNS
[9] = test system: A498 renal
[10] = test system: IGROV1 ovarian
[11] = test system: RPMI-8226 leukemia
[12] = test system: HCT-15 colon
[13] = test system: UO-31 renal
[14] = test system: CAKI-1 renal
[15] = test system: DU-145 prostate
[16] = test system: MOLT-4 leukemia
[17] = test system: PC-3 prostate
[18] = test system: MCF7 breast
[19] = test system: MALME-3M melanoma
[20] = test system: KM12 colon
[21] = test system: HCC-2998 colon
[22] = test system: SF-268 CNS
[23] = test system: COLO 205 colon
[24] = test system: NCI-H226 lung
[25] = test system: SW-620 colon
[26] = test system: HCT-116 colon
[27] = test system: NCI-H522 lung
[28] = test system: HS 578T breast
[29] = test system: HOP-92 NSCLC
[30] = test system: EKVX NSCLC
[31] = test system: SK-MEL-5 melanoma
[32] = test system: 786-0 renal
[33] = test system: UACC-62 melanoma
[34] = test system: OVCAR-3 ovarian
[35] = test system: M14 melanoma
[36] = test system: SF-539 CNS
[37] = test system: NCI/ADR-RES ovarian
[38] = test system: UACC-257 melanoma
[39] = test system: MDA-MB-231 breast
[40] = test system: BT-549 breast
[41] = test system: OVCAR-5 ovarian
[42] = test system: HT29 colon
[43] = test system: NCI-H460 lung
[44] = test system: SK-OV-3 ovarian
[45] = test system: A549 NSCLC
[46] = test system: SK-MEL-2 melanoma
[47] = test system: SF-295 CNS
[48] = test system: MDA-MB-435
[49] = test system: HOP-62 NSCLC
[50] = test system: T-47D breast
[51] = test system: SNB-75 CNS
[52] = test system: NCI-H23 lung
[53] = test system: K-562 leukemia
[54] = test system: LOX IMVI melanoma
[55] = test system: TK-10 renal
[56] = test system: HL-60(TB) leukemia
[57] = test system: SR leukemia

Cc1ccc2c(c1)-c1c(C#N)c(N)nc(-c3ccccc3)c1CCS2(=O)=O
TGI [1]: > 100 µM | TGI [2]: > 100 µM | TGI [3]: > 100 µM | TGI [4]: > 100 µM | TGI [5]: > 100 µM | TGI [6]: > 95.5 µM | TGI [7]: > 46.9 µM | TGI [8]: > 90.7 µM | TGI [9]: > 80.2 µM | TGI [10]: > 51.1 µM | TGI [11]: 32.9 µM | TGI [12]: > 100 µM | TGI [13]: 97 µM | TGI [14]: > 100 µM | TGI [15]: > 38.9 µM | TGI [16]: > 100 µM | TGI [17]: > 100 µM | TGI [18]: > 100 µM | TGI [19]: > 100 µM | TGI [20]: > 100 µM | TGI [21]: > 100 µM | TGI [22]: > 100 µM | TGI [23]: > 56.3 µM | TGI [24]: > 30.2 µM | TGI [25]: > 100 µM | TGI [26]: > 100 µM | TGI [27]: 4.58 µM | TGI [28]: > 47.6 µM | TGI [29]: > 100 µM | TGI [30]: > 100 µM | TGI [31]: > 24 µM | TGI [32]: > 100 µM | TGI [33]: > 100 µM | TGI [34]: > 100 µM | TGI [35]: > 100 µM | TGI [36]: > 100 µM | TGI [37]: > 46.5 µM | TGI [38]: > 100 µM | TGI [39]: > 100 µM | TGI [40]: > 43.4 µM | TGI [41]: > 100 µM | TGI [42]: > 35 µM | TGI [43]: > 100 µM | TGI [44]: 46 µM | TGI [45]: > 100 µM | TGI [46]: > 100 µM | TGI [47]: > 100 µM | TGI [48]: > 36.5 µM | TGI [49]: > 100 µM | TGI [50]: > 100 µM | TGI [51]: 59.2 µM | TGI [52]: > 62.7 µM | TGI [53]: 11.7 µM | TGI [54]: > 100 µM | TGI [55]: > 100 µM

O=C(COc1cccc(/C=C2\COc3ccc(Cl)cc3C2=O)c1)c1ccc(Cl)cc1
GI50 [1]: 14.9 µM | TGI [1]: 31.5 µM | GI50 [2]: 18.3 µM | TGI [2]: 32.2 µM | GI50 [3]: 4.72 µM | TGI [3]: 49 µM | GI50 [4]: 15.4 µM | TGI [4]: 29.4 µM | GI50 [5]: 13.7 µM | TGI [5]: 28.5 µM | GI50 [6]: 15.8 µM | TGI [6]: 37.5 µM | GI50 [56]: 8.99 µM | TGI [56]: 31.5 µM | GI50 [7]: 14.5 µM | TGI [7]: 27.7 µM | GI50 [8]: 13.8 µM | TGI [8]: 26.7 µM | GI50 [9]: 13.8 µM | TGI [9]: 27.1 µM | GI50 [10]: 540 nM | TGI [10]: 3.7 µM | GI50 [11]: 2000 nM | TGI [11]: 5.14 µM | GI50 [12]: 12.2 µM | TGI [12]: 24.7 µM | GI50 [13]: 5.13 µM | TGI [13]: 19.4 µM | GI50 [14]: 12.1 µM | TGI [14]: 24.5 µM | GI50 [15]: 14.7 µM | TGI [15]: 27.8 µM | GI50 [57]: 1710 nM | TGI [57]: 5.11 µM | GI50 [16]: 5.95 µM | TGI [16]: 24.3 µM | GI50 [17]: 12.4 µM | TGI [17]: 28.9 µM | GI50 [18]: 1250 nM | TGI [18]: 4.76 µM | GI50 [19]: 17.9 µM | TGI [19]: 34.2 µM | GI50 [20]: 2790 nM | TGI [20]: 11.2 µM | GI50 [21]: 3.71 µM | TGI [21]: 15.1 µM | GI50 [22]: 13.9 µM | TGI [22]: 26.9 µM | GI50 [23]: 15 µM | TGI [23]: 29.8 µM | GI50 [24]: 14.1 µM | TGI [24]: 31.2 µM | GI50 [25]: 3.3 µM | TGI [25]: 13 µM | GI50 [26]: 3.28 µM | TGI [26]: 11.3 µM | GI50 [27]: 11.7 µM | TGI [27]: 27.2 µM | GI50 [28]: 18.8 µM | TGI [28]: 48.7 µM | GI50 [29]: 536 nM | TGI [29]: 13.4 µM | GI50 [30]: 12.5 µM | TGI [30]: 25.8 µM | GI50 [31]: 12.8 µM | TGI [31]: 25.3 µM | GI50 [32]: 16.1 µM | TGI [32]: 29.7 µM | GI50 [33]: 11 µM | TGI [33]: 23.1 µM | GI50 [34]: 7.71 µM | TGI [34]: 19.8 µM | GI50 [35]: 11.6 µM | TGI [35]: 24.4 µM | GI50 [36]: 15.4 µM | TGI [36]: 28.7 µM | GI50 [37]: 20.5 µM | TGI [37]: 69.6 µM | GI50 [38]: 18.5 µM | TGI [38]: 33.4 µM | GI50 [39]: 4.08 µM | TGI [39]: 21.1 µM | GI50 [41]: 13 µM | TGI [41]: 25.8 µM | GI50 [42]: 7.69 µM | TGI [42]: 20.2 µM | GI50 [43]: 15.8 µM | TGI [43]: 30.1 µM | GI50 [44]: 18.4 µM | TGI [44]: 45.6 µM | GI50 [45]: 16.3 µM | TGI [45]: 32.1 µM | GI50 [46]: 7.4 µM | TGI [46]: 21.1 µM | GI50 [47]: 24.9 µM | TGI [47]: 39.6 µM | GI50 [48]: 5.91 µM | TGI [48]: 18.6 µM | GI50 [49]: 14.3 µM | TGI [49]: 27.7 µM | GI50 [50]: 11.4 µM | TGI [50]: 26.1 µM | GI50 [51]: 4.73 µM | TGI [51]: 22.2 µM | GI50 [52]: 13.4 µM | TGI [52]: 26.4 µM | GI50 [53]: 2670 nM | TGI [53]: > 100 µM | GI50 [54]: 3.2 µM | TGI [54]: 13.2 µM | GI50 [55]: 15.1 µM | TGI [55]: 28.7 µM
